The text below walks through data of PMC11492426, “Design, synthesis, and biological evaluation of novel quinoline-based EGFR/HER-2 dual-target inhibitors as potential anti-tumor agents” (RSC Advances, 2024).

Read-outs that look alike come from different tables or passages of the source.

Usually GI50 stands for the concentration at which growth is held to half of that of the control. A word on the IC50: it is the concentration that inhibits the measured activity by half. Broadly, the viability is a read-out of living cells in per cent, often relative to untreated cells. Read a high viability as better survival. For orientation: melting point means the temperature, or range, at which the solid turns liquid.

Data set [1] deals with four human cancer cell lines (A-549, MCF-7, Panc-1, HT-29). The experiment in a line: Antiproliferative assay, average over four cancer cell lines. In kind it is cell-based. To be noted: Homo sapiens, average IC50 over the four cancer cell lines.
The subject of data set [2] is A-549 lung cancer cell line. Nature of the data set: Antiproliferative assay, A-549. As to conditions: Homo sapiens, A549; A-549 lung cancer cells; read-out: Antiproliferative activity IC50 ± SEM, A-549. The class given is cell-based.
Data set [3] in a line: Cell viability assay (MTT) on MCF-10A normal cells. The class given is cell-based. To be noted: human, MCF-10A mammary gland epithelial normal cells, MCF-10A cells, four-day incubation. The procedure:
The impact of compounds 3a–h and 5a–d on cell viability was evaluated using the human mammary (MCF-10A) gland epithelium normal cell line. The MTT assay was used to evaluate the cell viability of 3a–h and 5a–d after a four-day incubation period on MCF-10A cells.[46] Refer to Appendix A for more details.
The effect of new compounds 3a–h and 5a–d on cell viability was evaluated using the MCF-10A (human mammary gland epithelium) normal cell line.
4.2. Biological evaluation
4.2.1 Cell Viability assay (MTT assay)
MTT assay was performed to investigate the effect of the synthesized compounds on mammary epithelial cells (MCF-10A). The cells were propagated in medium consisting of Ham's F-12 medium/ Dulbecco's modified Eagle's medium (DMEM) (1:1) supplemented with 10% foetal calf serum, 2 mM glutamine, insulin (10 μg/mL), hydrocortisone (500 ng/mL) and epidermal growth factor (20 ng/mL). Trypsin ethylenediamine tetra acetic acid (EDTA) was used to passage the cells after every 2-3 days. 96-well flat-bottomed cell culture plates were used to seed the cells at a density of 10^4 cells mL-1. The medium was aspirated from all the wells of culture plates after 24 h followed by the addition of synthesized compounds (in 200 μL medium to yield a final concentration of 0.1% (v/v) dimethyl sulfoxide) into individual wells of the plates. Four wells were designated to a single compound. The plates were allowed to incubate at 37°C for 96 h. Afterwards, the medium was aspirated and 3-[4,5-dimethylthiazol-2-yl]-2,5-diphenyltetrazolium bromide (MTT) (0.4 mg/mL) in medium was added to each well and subsequently incubated for 3 h. The medium was aspirated and 150 μL dimethyl sulfoxide (DMSO) was added to each well. The plates were vortexed followed by the measurement of absorbance at 540 nm on a microplate reader. The results were presented as inhibition (%) of proliferation in contrast to controls comprising 0.1% DMSO.

The target of data set [4] is T1, EGFR (Homo sapiens, UniProt P00533). The experiment in a line: EGFR inhibitory assay (EGFR-TK assay).
Another data set concerns the target HER2 (Homo sapiens, UniProt P04626). The experiment in a line: HER2 inhibitory assay (ADP-Glo kinase assay). In general terms: In ADP-Glo the light output rises with the ADP produced.
The test system of data set [5] is Panc-1 pancreatic cancer cell line. The experiment in a line: Antiproliferative assay, Panc-1. The class given is cell-based. As to conditions: Homo sapiens; Panc-1 pancreatic cancer cells; read-out: Antiproliferative activity IC50 ± SEM, Panc-1.
In data set [6] the test system is HT-29 colon cancer cell line. Nature of the data set: Antiproliferative assay, HT-29. In kind it is cell-based. As to conditions: Homo sapiens; HT-29 colon cancer cells; read-out: Antiproliferative activity IC50 ± SEM, HT-29.
Data set [7] has as its system MCF-7 breast cancer cell line. The experiment in a line: Antiproliferative assay, MCF-7. In kind it is cell-based. To be noted: Homo sapiens, MCF7; MCF-7 breast cancer cells; read-out: Antiproliferative activity IC50 ± SEM, MCF-7.
The subject of data set [8] is four human cancer cell lines. Further details: method as in ref 39 = [39]; Mohassab A. M. Hassan H. A. Abou-Zied H. A. Fujita M. Otsuka M. Gomaa H. A. Youssif B. G. Abdel-Aziz M. J. Mol. Struct. 2024 1297 136953. As to conditions: read-out: GI50 against four cancer cell lines; cited from earlier work.
Data set [9] has as its target T1, EGFR. The arrangement: 645–1186; His6 (N); made in house; host or cells: Sf-9 insect cells (baculovirus vectors pBlueBacHis2B / pFASTBacHTc); method as in ref 38 (Makawana et al.). As to conditions: ref 38 (Makawana et al.); cited from earlier work.
For data set [10], the system named is BRAF^V600E. Further details: method as in PMID 33279248. As to conditions: cited from earlier work.
Data set [11] concerns BRAF^V600E. The arrangement: method as in ref 39 = [39]; Mohassab A. M. Hassan H. A. Abou-Zied H. A. Fujita M. Otsuka M. Gomaa H. A. Youssif B. G. Abdel-Aziz M. J. Mol. Struct. 2024 1297 136953. To be noted: cited from earlier work.
For a further data set, the system named is Bcl-2. Nature of the data set: Bcl-2 inhibition assay in MCF-7 cells. The class given is cell-based, human. The protocol: Additionally, the treatment led to a notable reduction in anti-apoptotic Bcl-2 expression levels, with a fold decrease of roughly 6 for compound 3e and 8 for compound 5a. Compounds 3e and 5a markedly elevated the Bax/Bcl-2 ratio compared to the control untreated cells. […]
4.2.8. Bcl-2 inhibition assay
Mix all reagents thoroughly without foaming before use. Wash the microwells twice with approximately 300 μL Wash Buffer per well with thorough aspiration of microwell contents between washes. Take caution not to scratch the surface of the microwells. After the last wash, empty the wells and tap microwell strips on absorbent pad or paper towel to remove excess Wash Buffer. Use the microwell strips immediately after washing or place upside down on a wet absorbent paper for not […]
longer than 15 minutes. […] Add 100 μL of Sample Diluent in duplicate to all standard wells and to the blank wells. Prepare standard (1:2 dilution) in duplicate ranging from 32 ng/mL to 0.5 ng/mL. Add 100 μL of Sample Diluent, in duplicate, to the blank wells. Add 80 μL of Sample Diluent, in duplicate, to the sample wells. Add 20 μL of each Sample, in duplicate, to the designated wells. Add 50 μL of diluted biotin-conjugate to all wells, including the blank wells. Cover with a plate cover and incubate at room temperature, on a microplate shaker at 100 rpm if available, for 2 hours. Remove plate cover and empty the wells. Wash microwell strips 3 times as described in step 2. Add 100 μL of diluted Streptavidin-HRP to all wells, including the blank wells. Cover with a plate cover and incubate at room temperature, on a microplate shaker at 100 rpm if available, for 1 hour. Remove plate cover and empty the wells. Wash microwell strips 3 times as described in step 2.
Proceed to the next step. Pipette 100 μl of mixed TMB Substrate Solution to all wells, including the blanks. Incubate the microwell strips at room temperature (18° to 25°C) for about 15 minutes, if available on a rotator set at 100 rpm. Avoid direct exposure to intense light. The point, at which the substrate reaction is stopped, is often determined by the ELISA reader. Many ELISA readers record absorbance only up to 2.0 O.D. Therefore, the color development within individual microwells must be watched by the person running the assay and the substrate reaction stopped before positive wells are no longer properly detectable. Stop the enzyme reaction by quickly pipetting 100 μL of Stop Solution into each well, including the blank wells. It is important that the Stop Solution is spread quickly and uniformly throughout the microwells to completely inactivate the enzyme. Results must be read immediately after the Stop Solution is added or within one hour if the microwell strips are stored at 2 - 8°C in the dark. Read absorbance of each microwell on a spectrophotometer using 450 nm as the primary wavelength.
4.3. Statistical analysis
Computerized Prism 5 program was used to statistically analyzed data using one-way ANOVA test followed by Tukey’s as post ANOVA for multiple comparison at P ≤.05. Data were presented as […]

A further data set concerns Caspase-3. The experiment in a line: Caspase-3 activation assay in MCF-7 cells. The class given is cell-based, human.
The subject of another data set is Caspase-8. Nature of the data set: Caspase-8 activation assay in MCF-7 cells. The class given is cell-based, human.
The next data set relates to Bax. The experiment in a line: Bax activation assay in MCF-7 cells. In kind it is cell-based, human. The procedure:
This lysate was diluted in Standard Diluent Buffer over the range of the assay and measured for human active caspase-8 content. (Cells are Plated in a density of 1.2 – 1.8 × 10,000 cells/well in a volume of 100µl complete growth medium + 100 ul of the tested compound per well in a 96-well plate for 24 hours before the enzyme assay for […].). […]
4.2.7. Bax activation assay
Bring all reagents, except the human Bax-α Standard, to room temperature for at least 30 minutes prior to opening. The human Bax-α Standard solution should not be left at room temperature for more than 10 minutes. All standards, controls and samples should be run in duplicate. Refer to the Assay Layout Sheet to determine the number of wells to be used and put any remaining wells with the desiccant back into the pouch and seal the ziploc. Store unused wells at 4 °C. Pipet 100 μL of Assay Buffer into the S0 (0 pg/mL standard) wells. Pipet 100 μL of Standards #1 through #6 into the appropriate wells. Pipet 100 μL of the Samples into the appropriate wells. Tap the plate gently to mix the contents. Seal the plate and incubate at room temperature on a plate shaker for 1 hour at ~500 rpm. Empty the contents of the wells and wash by adding 400 μL of wash solution to every well.
Repeat the wash 4 more times for a total of 5 washes. After the final wash, empty or aspirate the wells and firmly tap the plate on a lint free paper towel to remove any remaining wash buffer. Pipet 100 μL of yellow Antibody into each well, except the Blank. Seal the plate and incubate at room temperature on a plate shaker for 1 hour at ~500 rpm. Empty the contents of the wells and wash by adding 400 μL of wash solution to every well. Repeat the wash 4 more times for a total of 5 washes.
After the final wash, empty or aspirate the wells and firmly tap the plate on a lint free paper towel to remove any remaining wash buffer. Add 100 μL of blue Conjugate to each well, except the Blank.
Seal the plate and incubate at room temperature on a plate shaker for 30 minutes at ~500 rpm. Empty the contents of the wells and wash by adding 400 μL of wash solution to every well. Repeat the wash 4 more times for a total of 5 washes. After the final wash, empty or aspirate the wells and firmly tap […]
the plate on a lint free paper towel to remove any remaining wash buffer. Pipet 100 μL of Substrate Solution into each well. Incubate for 30 minutes at room temperature on a plate shaker at ~500 rpm.
Pipet 100 μL Stop Solution to each well. Blank the plate reader against the Blank wells, read the optical density at 450 nm. Calculate the average net Optical Density (OD) bound for each standard and sample by subtracting the average Blank OD from the average OD for each standard and sample.
Using linear graph paper, plot the Average Net OD for each standard versus Bax concentration in each standard. Approximate a straight line through the points. The concentration of Bax in the unknowns can be determined by interpolation. […]
Remove plate cover and empty the wells. […]
Incubate the microwell strips at room temperature (18° to 25°C) for about 15 minutes, if

T1 sequence (P00533 669-1210): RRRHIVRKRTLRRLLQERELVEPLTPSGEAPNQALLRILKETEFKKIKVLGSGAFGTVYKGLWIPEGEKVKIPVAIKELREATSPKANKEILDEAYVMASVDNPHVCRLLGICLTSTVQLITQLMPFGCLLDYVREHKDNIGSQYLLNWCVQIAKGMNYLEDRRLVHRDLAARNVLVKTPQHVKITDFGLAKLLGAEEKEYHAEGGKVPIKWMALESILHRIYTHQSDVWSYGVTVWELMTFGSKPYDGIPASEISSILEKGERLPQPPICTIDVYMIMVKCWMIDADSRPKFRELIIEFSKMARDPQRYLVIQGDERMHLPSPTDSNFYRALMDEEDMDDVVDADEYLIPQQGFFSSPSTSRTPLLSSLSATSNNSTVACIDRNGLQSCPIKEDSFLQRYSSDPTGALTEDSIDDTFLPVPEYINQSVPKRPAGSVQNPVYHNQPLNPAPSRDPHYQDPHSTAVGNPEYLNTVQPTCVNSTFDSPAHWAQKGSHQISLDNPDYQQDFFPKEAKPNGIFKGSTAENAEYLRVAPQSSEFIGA
Chain of HER2 (P04626 676-1255 limits assumed): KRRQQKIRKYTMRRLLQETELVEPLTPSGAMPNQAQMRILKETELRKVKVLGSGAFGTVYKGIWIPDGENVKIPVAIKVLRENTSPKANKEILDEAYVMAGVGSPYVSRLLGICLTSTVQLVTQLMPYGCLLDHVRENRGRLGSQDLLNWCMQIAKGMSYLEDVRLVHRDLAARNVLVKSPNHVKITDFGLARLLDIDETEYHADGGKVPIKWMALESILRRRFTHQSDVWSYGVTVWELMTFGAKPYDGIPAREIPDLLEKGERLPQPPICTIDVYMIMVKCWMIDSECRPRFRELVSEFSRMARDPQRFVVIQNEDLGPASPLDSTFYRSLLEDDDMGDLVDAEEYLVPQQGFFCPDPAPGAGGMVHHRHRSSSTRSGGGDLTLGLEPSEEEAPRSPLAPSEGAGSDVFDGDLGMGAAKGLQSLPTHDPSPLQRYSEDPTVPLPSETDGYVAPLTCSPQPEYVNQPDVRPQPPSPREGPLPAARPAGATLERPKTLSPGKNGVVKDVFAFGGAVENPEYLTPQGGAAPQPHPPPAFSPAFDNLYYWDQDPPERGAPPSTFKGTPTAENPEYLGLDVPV

`Cc1ccc2[nH]c(=O)c(C=Nc3ccc(NS(=O)(=O)c4ncccn4)cc3)c(O)c2c1` [Compound 5b, N-(4-(((4-hydroxy-6-methyl-2-oxo-1,2-dihydroquinolin-3-yl)methylene)amino)phenyl)pyrimidine-2-sulfonamide] returned a GI50 in data set [1] of 39 nM. For the same molecule, the IC50 was 39 ± 4 nM in data set [2]; 85 ± 5 nM at EGFR [4]; 47 ± 3 nM at HER2; 41 ± 4 nM in data set [5]; 40 ± 3 nM in data set [6]; 35 ± 4 nM in [7]. Moreover, the viability at 96 h, 50 µM in [3] came out at 90%.

`Cn1c(=O)c(C=Nc2ccc(NS(=O)(=O)c3ncccn3)cc2)c(O)c2ccccc21` [Compound 5d, N-(4-(((4-hydroxy-1-methyl-2-oxo-1,2-dihydroquinolin-3-yl)methylene)amino)phenyl)pyrimidine-2-sulfonamide] showed a melting point of 318 to 320 °C. In addition, growth in [1] was halved (GI50) at 46 nM. Besides, in data set [2], the IC50 came to 46 ± 4 nM. The molecule also had a viability at 96 h, 50 µM in data set [3] of 90%. On EGFR [4], the half-maximal inhibitory concentration (IC50) is 93 ± 5 nM. Besides, at HER2, the IC50 amounted to 53 ± 3 nM. Further, in [5], the IC50 turned out to be 48 ± 4 nM. Besides, the half-maximal inhibitory concentration (IC50) in data set [6] is 48 ± 4 nM. Besides, the IC50 in data set [7] came to 42 ± 4 nM.

On to `CC(=NO)c1ccc(NC(=O)c2cc(-c3ccc(S(C)(=O)=O)cc3)nc3ccccc23)cc1` [Compound VIII], for which the GI50 in data set [8] is 1200 nM.

With `COc1ccc(Oc2nc3ccc(C)cc3cc2/C=N/NC(=O)Cn2cc([N+](=O)[O-])nc2C)cc1` [Compound VII], at EGFR [9], the IC50 was 120 ± 50 nM.

On to `C#Cc1cccc(Nc2ncnc3cc(OCCOC)c(OCCOC)cc23)c1` [Erlotinib, reference compound], for which the IC50 in data set [2] is 30 ± 3 nM; with BRAF^V600E [10], […]; in [5], 30 ± 3 nM; in the data set on BRAF^V600E [11], […]; in data set [6] it was 30 ± 3 nM; in data set [7], 40 ± 3 nM.

For the molecule `CN[C@@H]1C[C@H]2O[C@@](C)([C@@H]1OC)n1c3ccccc3c3c4c(c5c6ccccc6n2c5c31)C(=O)NC4` [Staurosporine, reference compound], in the data set on Bcl-2 (treated at IC50 values), the “Bcl-2 Conc.” value is 1.00 ng/mL. In the data set on Bcl-2 (versus untreated control), the “Bcl-2 Fold reduction” value is on record as 5. The “Caspase-3 Conc.” value with Caspase-3 (treated at IC50 concentration) worked out at 465 ± 4 pg/mL. Further, in the data set on Caspase-3 (versus untreated control), the “Caspase-3 Fold change” value came to 7. Further, in the data set with Caspase-8 (treated at IC50 concentration), the “Caspase-8 Conc.” value stood at 1.60 ± 0.10 ng/mL. The “Caspase-8 Fold change” value with Caspase-8 (versus untreated control) was 18. In addition, in the data set on Bax (treated at IC50 values), the “Bax Conc.” value amounted to 288 ± 2 pg/mL. Also, in the data set with Bax (versus untreated control), the “Bax Fold change” value turned out to be 32.

As for `COc1cccc2c1C(=O)c1c(O)c3c(c(O)c1C2=O)C[C@@](O)(C(=O)CO)C[C@@H]3O[C@H]1C[C@H](N)[C@H](O)[C@H](C)O1` [doxorubicin], the 50% growth inhibitory concentration (GI50) in data set [8] was 1400 nM.
